Source: article PMC4503694, “The Human Autoantibody Response to Apolipoprotein A-I Is Focused on the C-Terminal Helix: A New Rationale for Diagnosis and Treatment of Cardiovascular Disease?” (PLoS ONE, 2015)

What was measured:
[1] = tested on: anti-ApoA-I autoantibodies in pooled patient plasma; assay: Capture ELISA: immunoreactivity of pooled anti-ApoA-I-positive patient plasma to coated peptides; format: binding, human; settings: pooled plasma of anti-ApoA-I-positive patients; peptide as coating antigen; mean ± SD, n = 3 (Fig 1a)
Method: Anti-ApoA-I IgG autoantibodies in plasma were measured as described previously. Briefly, Maxisorp plates (Nunc) were coated with purified and delipidated human ApoA-I, diluted in carbonate buffer pH 9.7 (20 μg/ml; 50 μl/well), for 1 h at 37°C. The same procedure was used for the engineered peptides. After three washes with PBS/ 2% (w/v) BSA (100 μl/well), all wells were blocked for 1 h with PBS/ 2% (w/v) BSA at 37°C. Samples were diluted 1:50 in PBS/ 2% (w/v) BSA and incubated for 60 min at 37°C. Samples at the same dilution were also added to a non-coated well to assess individual non-specific binding. After six further washes, 50 μl/well of alkaline-phosphatase conjugated anti-(human IgG) (Sigma-Aldrich), diluted 1:1000 in PBS/ 2% (w/v) BSA, was incubated for 1 h at 37°C. After six more washes (150 μl/well) with PBS/ 2% (w/v) BSA, the phosphatase substrate p-nitrophenyl phosphate (50μl/well; 1mg/ml; Sigma—Aldrich) dissolved in 4.8% (w/v) diethanolamine (pH 9.8) was added. Each sample was tested in duplicate and A 405nm was determined after 20 min of incubation at 37°C (VERSAMax; MolecularDevices). The corresponding non-specific binding was subtracted from the mean absorbance for each sample. As in previous studies, positive immunoreactivity of human samples to ApoA-I was prospectively defined by an index >37%. This value was also used to define positive immunoreactivity to mimetic peptides, as defined upon receiver operating characteristic (ROC) curve analyses, and shown to provide an identical prevalence of positive immunoreactivity levels 11% […] to native ApoA-1 and 11% (14/132) to F3L1 peptide (data not shown). Repeatability and reproducibility were determined at two levels. At a high level (A 405nm = 1.2, i.e. twice the cut-off value), the intra- and inter-assay coefficients of variation were 10% (n = 10) and 17% (n = 10) respectively. At the cut-off level, the intra- and inter-assay coefficients of variation were 16% (n = 10) and 12% (n = 8) respectively.
In order to characterize the anti-ApoA-I autoantibody response, we chemically synthesized a panel of peptides corresponding to the different alpha-helical regions in the protein (Table 1). Each of the two longest helical regions, C and D, were synthesized as two separate peptides (C1, C2, D1, D2) whose sequences are located on either side of centrally located proline residues (Pro^121 for Region C, Pro^165 for Region D (Table 1)). The synthetic peptides were then used as coating antigens in a capture ELISA experiment to compare their immunoreactivity against pooled plasma from a subset of patients from our acute chest pain cohort that had previously shown to be positive for anti-ApoA-I autoantibodies (Fig 1a).
(§1) Fig 1 The anti-ApoA-I autoantibody response is strongly biased towards the C-terminal alpha-helical region. ELISA experiments were carried out using a set of ApoA-I-derived peptides (Table 1). a. Capture ELISA assay to determine the immunoreactivity of plasma pooled from patients known to be positive for anti-ApoA-I autoantibodies against the set of peptides. Specific ELISA signals were calculated as [signal in well]-[mean background signal (uncoated well)]. Results are expressed as mean ± SD (n = 3) b and c. Competition ELISA to determine the capacity of the set of peptides to block binding of anti-ApoA-I antibodies from either pooled patient plasma (b) or goat polyclonal IgG (c) to immobilized ApoA-I. Plasma or antibody was preincubated (2 h, room temperature) with peptides at the indicated concentrations prior to addition to assay wells. Percent maximal ELISA signals were calculated as 100 × ([signal in well]-[mean background signal (uncoated well)])/([mean maximal signal (no peptide)]-[mean background signal]). Results are expressed as mean ± SD (n = 3).

[2] = tested on: goat polyclonal anti-ApoA-I IgG; assay: Competition ELISA: peptides block binding of goat polyclonal IgG to immobilized ApoA-I; settings: goat polyclonal anti-ApoA-I IgG preincubated with peptide; wells coated with ApoA-I (Fig 1c)
Method: as §1, with “3). […] In contrast, when pre-incubated with goat polyclonal anti-ApoA-I IgG, none of the peptides, including Peptide F, decreased signal inhibition by 15% at the highest concentration (Fig 1c). […]” for “3).”

[3] = tested on: human monocyte-derived macrophages; assay: Anti-ApoA-I IgG-mediated IL-6 and TNF-α release from human monocyte-derived macrophages; format: cell-based; settings: peptide preincubated with anti-ApoA-I IgG 2 h at room temperature; highest concentration 1 mg/mL (Fig 5, 6)
Method: Human monocytes were isolated from buffy coats from healthy donors at the Geneva University Hospitals Blood Transfusion Center and differentiated into macrophages by 24 h incubation with IFN-γ (500 U/ml) in complete RPMI-1640 culture medium (10% heat-inactivated FCS, 50 μg/ml streptomycin, 50 U/ml penicillin, 2 mM L-glutamine), as previously described. Assays of anti-ApoA-I IgG-mediated release of IL-6 and TNF-α from human monocyte-derived macrophages was carried out as described previously using a previously determined optimal concentration of polyclonal goat anti-ApoA-I IgG (40 μg/ml). Endotoxin contamination in the assay was excluded using the limulus amebocyte lysate Endochrome assay. Where indicated, anti-ApoA-I IgG was pre-incubated with peptide […] (1 mg/mL) for 2 h at room temperature prior addition to the cells. Each experiment was performed on cells from […] different healthy blood donors. […] We next used a Luminex assay to measure the capacity of peptide […] to inhibit endotoxin-free anti-ApoA-I IgG-mediated proinflammatory cytokine release in human monocyte-derived macrophages (Fig 5a and 5b). As expected from previously published work, anti-ApoA-I IgG elicited a significant increase in production of both in IL-6 and TNF-α when compared to control IgG (Ctl IgG; p<0.0001 for both cytokines). […] We were unable to measure the inhibitory activity of intact purified and delipidated ApoA-I in this assay because traces of endotoxin elicit significant levels of background cytokine secretion (NV and SP, unpublished observations).  Fig 5 Peptide […] inhibits anti-ApoA-I IgG-mediated release of proinflammatory cytokines from cultured human monocyte-derived macrophages. Release of proinflammatory cytokines TNF-α (a) IL-6 (b) from human monocyte-derived macrophages induced by endotoxin-free goat polyclonal anti-ApoA-I IgG was determined with or without preincubation (2 h at room temperature) of the anti-ApoA-I IgG with peptide […] (1 mg/mL) and the corresponding scrambled peptide (Scr Pept). […] Anti-ApoA-I IgG was incubated with the indicated […] concentrations (preincubation 2 h at room temperature) prior to addition to cultured human monocyte-derived macrophages. Levels of proinflammatory cytokines were determined after 24 h culture. Experiments were repeated using cells from three different healthy donors, with results expressed as median, interquartile range (IQR) and range.

[4] = tested on: anti-ApoA-I antibodies from pooled patient plasma; assay: Competition ELISA: peptides block binding of antibodies from pooled patient plasma to immobilized ApoA-I; set-up: species or system human; settings: pooled patient plasma preincubated 2 h at room temperature with peptide; wells coated with intact ApoA-I (Fig 1b)
Method: as §1, with “3). […] In contrast, when pre-incubated with goat polyclonal anti-ApoA-I IgG, none of the peptides, including Peptide F, decreased signal inhibition by 15% at the highest concentration (Fig 1c). […]” for “3).”

RAW cells = assay: Anti-ApoA-I IgG-induced TNF-α release in RAW mouse macrophage cell line; format: cell-based; settings: anti-ApoA-I IgG 100 μg/ml preincubated 2 h with peptide 100 to 0.06 μg/ml; 24 h stimulation; ELISA; n = 3 (Fig 7)
Method: Raw cells were seeded in 96-well plates at 2 × 10^5 cells/well in DMEM culture medium (10% heat-inactivated FCS, 50 μg/ml streptomycin, 50 U/ml penicillin) for 24 h. Anti-Apo-A1 IgG (100 μg/ml) were incubated with peptides across a concentration range from 100 μg/ml to 0.06 μg/ml for 2 h at room temperature prior addition to cells. After 24 h stimulation, mouse TNF-α was quantified in the cell supernatants by ELISA according to manufacturer’s instructions (R&D system, MN).
Fig 7 Comparing the inhibitory potency of Peptide F and F3L1 on anti-ApoA-I IgG-induced TNF-α. Anti-ApoA-I IgG was incubated with the indicated peptide concentrations (preincubation 2 h at room temperature) prior to addition to cultured RAW cells. Levels of proinflammatory cytokines (TNF-α) were determined after 24 h culture. Mean levels (n = 3) are shown with error bars indicating the range.

[5] = tested on: anti-ApoA-I antibodies in plasma samples from three different patients; assay: Competition ELISA with plasma of three individual anti-ApoA-I-positive patients; format: binding, human; settings: preincubated 2 h at room temperature with peptide, n = 3 (Fig 3)
Method: We next performed ELISA assays using plasma samples from three different anti-ApoA-I autoantibody-positive patients from the cohort pre-incubated with Peptide F, a scrambled version of Peptide F (Table 1), or the stapled peptide F3L1 prior to addition to wells coated with ApoA-I (Fig 3).
Plasma samples were preincubated (2 h, room temperature) with peptides at the indicated concentrations prior to addition to assay wells. Percent maximal ELISA signals were calculated as 100 × ([signal in well]-[mean background signal (uncoated well)])/ ([mean maximal signal (no peptide)]-[mean background signal]). Results are expressed as mean ± SD (n = 3).

Substance | plasma immunoreactivity (specific ELISA signal) to coated peptide [1] | further results
A: ApoA-I-derived peptide, residues 10–39 (RVKDLATVYVDVLKDSGRDYVSQFEGSALG; UniProt P02647 34-63, looked up, fragment) | low signals | 
B: ApoA-I-derived peptide, residues 50–84 (WDSVTSTFSKLREQLGPVTQEFWDNLEKETEGLRQ; UniProt P02647 74-108, looked up, fragment) | intermediate signals | 
C1: ApoA-I-derived peptide, residues 97–120 (VQPYLDDFQKKWQEEMELYRQKVE; UniProt P02647 121-144, looked up, fragment) [Peptide C1] | low signals | 
C2: ApoA-I-derived peptide, residues 122–142 (LRAELQEGARQKLHELQEKLS; UniProt P02647 146-166, looked up, fragment) [Peptide C2] | intermediate signals | 
E: ApoA-I-derived peptide, residues 190–213 (AEYHAKATEHLSTLSEKAKPALED; UniProt P02647 214-237, looked up, fragment) | low signals | 
GLLPVLESFKVSFLSALEEYTKKLNT [Peptide F, ApoA-I-derived peptide, residues 220–242, C-terminal alpha-helix] | strongest signal | decrease of ELISA signal at the highest peptide concentration [2]: < 15%; inhibition of anti-ApoA-I IgG-induced TNF-α and IL-6 release [3]: comparable to that of F3L1; maximal inhibition plateau of total anti-ApoA-I signal [4]: approximately 50%; peptide concentration above which inhibition of ELISA signal is seen [4]: above 3 μM
KELYLLKFTVESKVGSTELPLNFSLA [F (scrambled), scrambled version of Peptide F, control peptide, reference compound] |  | inhibitory potency on anti-ApoA-I IgG-induced TNF-α (RAW cells): no detectable inhibitory activity; inhibition of anti-ApoA-I IgG-induced TNF-α and IL-6 release [3]: did not inhibit; inhibition of binding of anti-ApoA-I IgG to immobilized ApoA-I [5]: No inhibition was detectable
LGEEMRDRARAHVDALRTHLAPYSDEL [Peptide D1, ApoA-I-derived peptide, residues 143–164] | low signals | 
YSDELRQRLAARLEALKENGGA [Peptide D2, ApoA-I-derived peptide, residues 166–187] | low signals | 
